Reference: the NIST ThermoML archive (doi:10.1016/j.jct.2009.05.006)

What was measured:
[1] = excess molar enthalpy (molar enthalpy of mixing); xn = mol fraction of the nth substance listed; conditions: 298.15 K, 101 kPa, Liquid, Calvet calorimetry
[2] = xn = mol fraction of the nth substance listed; conditions: 298.15 K, 101 kPa, Liquid, Vibrating tube method

CCCCOC(=O)CCC [butyl butanoate] + BrCCBr
[1]
Conditions | excess molar enthalpy [kcal/mol]
x1 = 0.0408 | 0.00621
x1 = 0.0978 | 0.0115
x1 = 0.1663 | 0.0139
x1 = 0.2361 | 0.0122
x1 = 0.2997 | 0.00765
x1 = 0.3488 | 0.00359
x1 = 0.4085 | -0.000478
x1 = 0.4847 | -0.00645
x1 = 0.5816 | -0.0115
x1 = 0.7159 | -0.0129
x1 = 0.8632 | -0.00884
x1 = 0.9347 | -0.00526

BrCCCCBr [1,4-dibromobutane] + CCCCOC(=O)CC
Conditions | excess molar enthalpy [kcal/mol] | mass density [kg/m3]
[1], x2 = 0.0509 | 0.00574 | –
[1], x2 = 0.1183 | 0.00621 | –
[1], x2 = 0.196 | 0.00287 | –
[1], x2 = 0.275 | -0.00239 | –
[1], x2 = 0.3518 | -0.00765 | –
[1], x2 = 0.4473 | -0.0131 | –
[1], x2 = 0.4843 | -0.0151 | –
[1], x2 = 0.5517 | -0.0163 | –
[1], x2 = 0.6323 | -0.017 | –
[1], x2 = 0.7319 | -0.016 | –
[1], x2 = 0.8302 | -0.0124 | –
[1], x2 = 0.9193 | -0.0086 | –
[2], x1 = 0.0993 | – | 1702.4
[2], x1 = 0.1484 | – | 1647.38
[2], x1 = 0.2006 | – | 1590.44
[2], x1 = 0.2485 | – | 1539.57
[2], x1 = 0.307 | – | 1478.88
[2], x1 = 0.3593 | – | 1426.19
[2], x1 = 0.4138 | – | 1372.46
[2], x1 = 0.4767 | – | 1312.32
[2], x1 = 0.5324 | – | 1260.38
[2], x1 = 0.5968 | – | 1201.95
[2], x1 = 0.6549 | – | 1150.66
[2], x1 = 0.721 | – | 1093.83
[2], x1 = 0.787 | – | 1038.79
[2], x1 = 0.8544 | – | 984.01
[2], x1 = 0.9302 | – | 924.33

BrCCBr [1,2-dibromoethane] + CCCCOC=O
Conditions | excess molar enthalpy, [1] [kcal/mol] | mass density, [2] [kg/m3]
x2 = 0.0489 | – | 2085.1
x2 = 0.0509 | 0.0098 | –
x2 = 0.0955 | – | 2008.94
x2 = 0.1197 | 0.0186 | –
x2 = 0.1401 | – | 1938.46
x2 = 0.1884 | – | 1864.18
x2 = 0.1992 | 0.027 | –
x2 = 0.2379 | – | 1790.7
x2 = 0.28 | 0.032 | –
x2 = 0.3095 | – | 1688.13
x2 = 0.3398 | – | 1646.07
x2 = 0.3511 | 0.0332 | –
x2 = 0.3993 | 0.0327 | 1565.68
x2 = 0.449 | 0.0315 | –
x2 = 0.4831 | 0.0299 | –
x2 = 0.5112 | – | 1422.24
x2 = 0.5504 | 0.027 | –
x2 = 0.5786 | – | 1340.18
x2 = 0.6334 | 0.022 | –
x2 = 0.641 | – | 1266.85
x2 = 0.7029 | – | 1196.55
x2 = 0.7275 | 0.016 | –
x2 = 0.7738 | – | 1118.89
x2 = 0.8087 | 0.0105 | –
x2 = 0.8358 | – | 1053.24
x2 = 0.9111 | 0.00406 | –
x2 = 0.9138 | – | 973.46

CCCCOC(=O)CCC [butyl butanoate] + BrCCCBr
Conditions | excess molar enthalpy [kcal/mol] | mass density [kg/m3]
[1], x1 = 0.0478 | 0.0055 | –
[1], x1 = 0.1102 | 0.00932 | –
[1], x1 = 0.1831 | 0.0105 | –
[1], x1 = 0.2568 | 0.00765 | –
[1], x1 = 0.3257 | 0.000956 | –
[1], x1 = 0.3879 | -0.00789 | –
[1], x1 = 0.4528 | -0.0163 | –
[1], x1 = 0.5333 | -0.0217 | –
[1], x1 = 0.6324 | -0.0246 | –
[1], x1 = 0.7588 | -0.0225 | –
[1], x1 = 0.8755 | -0.0158 | –
[2], x1 = 0.079 | – | 1834.63
[2], x1 = 0.1205 | – | 1768.32
[2], x1 = 0.206 | – | 1641.3
[2], x1 = 0.2513 | – | 1578.66
[2], x1 = 0.3045 | – | 1509.31
[2], x1 = 0.356 | – | 1445.76
[2], x1 = 0.4085 | – | 1384.26
[2], x1 = 0.4703 | – | 1315.94
[2], x1 = 0.5404 | – | 1243.38
[2], x1 = 0.5989 | – | 1186.32
[2], x1 = 0.7409 | – | 1059.86
[2], x1 = 0.8162 | – | 998.93
[2], x1 = 0.8997 | – | 935.58
[2], x1 = 0.9428 | – | 904.65

CCCCOC(=O)CCC [butyl butanoate] + BrCCCCBr
Conditions | excess molar enthalpy [kcal/mol] | mass density [kg/m3]
[1], x1 = 0.0526 | 0.00645 | –
[1], x1 = 0.1195 | 0.0117 | –
[1], x1 = 0.1947 | 0.0139 | –
[1], x1 = 0.2716 | 0.0117 | –
[1], x1 = 0.3471 | 0.0055 | –
[1], x1 = 0.4134 | -0.00263 | –
[1], x1 = 0.471 | -0.0117 | –
[1], x1 = 0.5005 | -0.0155 | –
[1], x1 = 0.579 | -0.0206 | –
[1], x1 = 0.6761 | -0.0222 | –
[1], x1 = 0.7901 | -0.0196 | –
[1], x1 = 0.9017 | -0.0122 | –
[2], x1 = 0.0459 | – | 1757.74
[2], x1 = 0.1377 | – | 1643.47
[2], x1 = 0.1788 | – | 1594.83
[2], x1 = 0.2814 | – | 1479.86
[2], x1 = 0.3346 | – | 1423.4
[2], x1 = 0.3891 | – | 1367.86
[2], x1 = 0.5003 | – | 1260.78
[2], x1 = 0.5704 | – | 1197.33
[2], x1 = 0.6285 | – | 1146.9
[2], x1 = 0.7046 | – | 1083.68
[2], x1 = 0.7684 | – | 1032.96
[2], x1 = 0.8513 | – | 970.06
[2], x1 = 0.9156 | – | 923.4
